# Tests used:
# [1] = Sorption time course of BPA on activated and inactivated sludge in shake flasks; assay type: physicochemical; details: average over the first 30 min; initial 5.0 or 10 mg/L; 15 g TSS/L
# Protocol: To elucidate the plausible mechanisms of the biological removal of the bisphenol compounds, the removal of BPA was tested (adsorption on the biomass versus biological oxidation), and additional experiments are carried out in Erlenmeyer shake flasks containing either activated sludge or inactivated sludge in the presence of BPA. The sludge used for the tests is withdrawn from the SMBR unit. Prior to BPA addition in activated sludge sample, sludge is initially centrifuged at 8000 rpm at 4° C. for 10 min and softly washed. The inactivated sludge is prepared by subjecting sludge samples to a sterilization by adding 1.0 mL HgSO4 (20 g/L) to 200 mL of sludge. Then, the sterilized and centrifuged sample sludge is placed in conical flasks and shaken at 150 rpm at 22±2° C. for 2 h, and then centrifuged at 8000 rpm at 4° C. for 10 min. Different concentrations of BPA (0.45 to 18.2 mg/L) are added in the same mass of sludge (3.0 g of sludge diluted to 200 mL with milli-Q water). […] The flasks are shaken at 150 rpm at 22±2° C., pH=7±0.5 for 24 h and samples are taken in regular time intervals, and the amount of BPA adsorbed is determined by measuring the residual BPA concentrations in solution The same assay is carried out using inactivated sludge. […]
# [2] = system: biomass (activated sludge) of the SMBR; assay: COD removal in submerged membrane bioreactor (SMBR) fed synthetic wastewater contaminated by BPA
# Description: According to another embodiment, a submerged membrane bioreactor system (SMBR) operated at the laboratory scale is represented in the diagram of FIG. 1. The pilot unit is comprised of ZEEWEED® (ZW-1) hollow-fibre membranes of 0.04 μm rated pore diameter and 0.047 m^2 total filtering surface area, assembled vertically. The membrane unit is provided by Zenon Environmental & Co (Oakville, ON, Canada). ZW-1 membrane, whose module contains 80 fibres of 20 cm length, may be either operated in closed loop or in continuous mode of operation, through a stirred 6 L tank of 19.1 cm water high. Filtration may be achieved by drawing water through the membrane under a slight vacuum generated by a peristaltic pump (11) and measured by a manometer (10) located just after the membrane on the aspiration line. Air may be supplied through an extended aeration tube located inside the membrane module and also used to attach it vertically. The filtration of the effluent may be carried out intermittently (5 min of filtration followed by 30 s of pause) but air should be continuously injected in the SMBR system. An oxygen probe (5) may be connected to an oxymeter and installed in the bioreactor tank to measure dissolved oxygen concentration. The air flow-rate may be measured using a flow-meter (17). pH and temperature can also be measured during the experiments by using pH (8) and temperature (9) probes installed in the bioreactor tank.
# According to some embodiments of the present invention, the SMBR system may be seeded by activated sludge collected from any suitable municipal wastewater treatment plant. The first step consists in developing the biomass by using a synthetic wastewater of a known composition carried out according known techniques. For example, the initial biomass may be developed using glucose as an organic substrate (400-2000 mg/L of COD), although any other suitable sources of carbon may be employed as organic substrates, for example sodium acetate or peptone. The biomass is developed over a period of time suitable to obtain a sufficiently concentrated biomass. […]
# According to an embodiment, the biomass may be acclimatized in oxidizing the bisphenol compound over of period of time sufficient to obtain a biomass capable of oxidizing said bisphenol compound. […] It is worth noting that, during both successive stages (biomass development and biomass acclimatization), the performance of the SMBR was evaluated by the measurements of COD. […]
# During the experimental work, samples are taken for different analyses. […] BPA is also analyzed using liquid chromatography mass spectrometer (LC-MS/MS) after extraction and purification on a solid phase. […]
structure (smiles),measurement,setting,value
"CC(C)(c1ccc(O)cc1)c1ccc(O)cc1 [BPA, 2,2-Bis(4-hydroxyphenyl)propane]",BPA removed by physical sorption,[1],69%
same,BPA concentration at the entry of the SMBR from which foam is observed in the mixed liquor (perturbation in the bacterial activity),"[2]; 14 g VSS/L, HRT 6 h",≥ 25 mg/L
same,Volumetric loading at which BPA became toxic for the bacterial activity,"[2]; SMBR, around 5.0 mg/L BPA",21.6 g BPA/m^3/d
same,"Limit of toxicity, organic loading","[2]; SMBR, at 25 mg BPA/L",7.71 g BPA/kg VSS/d
same,"Limit of toxicity, volumetric loading","[2]; SMBR, at 25 mg BPA/L",about 108 g BPA/m^3/d
